# According to the METLIN SMRT retention time set (Domingo-Almenara et al. 2019):
# Test: gradient 5% acetonitrile 3 min, to 50% in 2 min, to 85% in 15 min, held 3 min, 100 µL/min
# Conditions: column: Zorbax Extend-C18 2.1 x 50 mm; eluents: water / acetonitrile, 0.1% formic acid
# Procedure, shortened: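 Using water and acetonitrile that each contained 0.1% formic acid, mixtures of ~100 pure standards were separated at 100 μL/min on a Zorbax Extend-C18 column (2.1 × 50 mm, 1.8 μm). The HPLC fed a quadrupole time-of-flight mass spectrometer working in positive and negative ionization mode, with dead and dwell volumes of 40 μL and 900 μL. Data were acquired over 3 months. Retention time was read from computationally picked adduct peaks after manual inspection of each.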
row,SMILES,RP-LC retention time [s]
1,CCc1cc(C2CCCN2C(=O)c2cnn3c(C(F)(F)F)cc(-c4ccco4)nc23)on1 (centres undefined),870
2,CC(C)c1ccc(Nc2c(-c3ccc(N(C)C)cc3)nc3cnccn23)cc1,1010
3,Cc1ccc(N2CCC(NC(=O)Nc3ccccc3C)C2=O)cc1 (centres undefined),823
4,CCCN1C(=O)c2cc(C(=O)NCc3ccccc3)nn2CC1(C)C(=O)NC1CCCC1 (centres undefined),605
5,CN1C(=O)NC(c2ccccc2C(F)(F)F)C2=C1CN(CCC(=O)N1CCCC1)C2=O (centres undefined),598
6,CN(C)c1nc2cc(C(=O)NCC3CC3)sc2n1-c1ccccc1,702
7,O=C(COc1ccccc1F)NCC(O)(c1ccccc1)C(F)(F)F (centres undefined),860
8,Cc1ccc(-c2nnc(SCC(=O)Nc3cc(C)ccc3C)o2)cc1,802
9,CCN1C(=O)c2cc(S(=O)(=O)Nc3ccc(F)cc3C)ccc2Oc2cccnc21,1010
10,CCOc1cccc(-c2noc(CN3C(=O)COc4ccc(C(C)(C)C)cc43)n2)c1,1380
11,COc1ccc2nc(NC3=NCN(CCc4cccs4)CN3)nc(C)c2c1,743
12,O=C(Cn1cc(-c2ccccc2)c2ncnc(N3CCCCC3)c21)Nc1ccccc1,798
13,O=C(CSc1nnc(-c2ccccc2)o1)Nc1nsc(-c2ccccc2)n1,793
14,CCCN1C(=O)c2c(C(=O)NCc3ccc(F)cc3)ncn2CC1(C)C(=O)NCc1ccc(F)cc1 (centres undefined),778
15,CCCOc1ccc(CNC(=O)c2snc(C(=O)NCc3cccc(OC)c3)c2N)cc1,1140
16,CCN1C(=O)c2cc(S(=O)(=O)Nc3cc(C)cc(C)c3)ccc2Oc2cccnc21,1080
17,O=C(c1ccc(F)cc1)N1CCCN(c2nnc3ccc(Cl)cn23)CC1,689
18,COc1cccc(Cn2c(=O)c3cnc(-c4ccc(C)cc4)nc3n(C)c2=O)c1,1250
19,Cc1cnc(C2CN(Cc3cccc(F)c3)C2)n1CC1CC1,554
20,CCCc1ccc(S(=O)(=O)N2CCC(C(=O)NCc3csc(-c4ccccc4)n3)CC2)cc1,1090
21,Cc1ccc(NC(=O)N2CCN(CCn3cnc4cccnc43)CC2)c(C)c1,594
22,Cc1ccc(NS(=O)(=O)c2cc3n(c2)CCCNC3=O)cc1C,658
23,O=C(NCc1ccc(F)cc1F)c1csc(C(=O)N2CCCC2)n1,795

row,SMILES,RP-LC retention time [s]
1,C=CCn1ccn(-c2ccc(F)c(Cl)c2)c(=O)c1=O,652
2,Cc1nn(C(=O)CCc2ccccc2)c(C)c1S(=O)(=O)N1CCCC1,1180
3,O=S(=O)(c1ccc(F)cc1)N1[C@H]2CC[C@@H]1c1cncnc1C2,709
4,O=C(NCCN1CCCCC1)C1CCc2sc(C(=O)N3CCCCC3)cc2C1 (centres undefined),558
5,COc1ccc(-c2cn3ccn(-c4cc(C)c(Cl)cc4OC)c(=O)c3n2)cc1,924
6,CC(C)(Oc1ccc(Cl)cc1)C(=O)N1CCN(CCn2cccn2)CC1,598
7,Cc1nc(-c2cccc(F)c2)sc1C(=O)NC1CC1,827
8,O=C(CSc1ncc(-c2ccccc2)[nH]1)Nc1nc(-c2ccc(C3CCCCC3)cc2)cs1,1420
9,CCc1ccccc1N1C(=O)CN(S(=O)(=O)CC)CC1(C)C(=O)NC1CCCC1 (centres undefined),826
10,O=C(NCc1ccc(F)c(Cl)c1)C1=C2CCCN2c2ccc(F)cc2S1(=O)=O,934
11,CCC1CCCCN1S(=O)(=O)c1cc(-c2nc(C)c(C)s2)sc1C (centres undefined),1320
12,Clc1cccc(-c2csc(Cc3nc(-c4ccc5c(c4)OCO5)no3)n2)c1,1260
13,c1cc(-c2nc(-c3ccnc(N4CCOCC4)c3)no2)ccn1,718
14,CC(C)(C)n1ncc2c(=O)n(NC(=O)c3cc(=O)c4ccccc4o3)cnc21,713
15,CCC1CN(C(=O)N2CCC(C(=O)NCCCOC(C)C)CC2)c2cc(C)ccc2O1 (centres undefined),873
16,CCCNC(=O)C1CCN(c2nc3ccsc3c(=O)n2-c2cccc(OC)c2)CC1,675
17,COc1ncc(C(=O)Nc2ccc(F)cc2F)c(C)n1,724
18,COc1ccc(OCc2ccc(C(=O)Nc3cc4c(cc3C(C)=O)OCO4)o2)cc1,1060
19,COc1cccc(CNC(=O)C2(C)CCCN(C(=O)Nc3ccc(C)cc3C)C2)c1 (centres undefined),930
20,Cc1noc(C)c1CC(=O)N1CCCn2cc(-c3ccccc3F)nc21,710
21,CC1=NS(=O)(=O)N(C)C=C1C(=O)OCc1nc(Cc2cccc(C)c2)no1,957
22,CCOC(=O)C1CCN(C(=O)C2CCN(S(=O)(=O)c3ccc(OCC)cc3)CC2)CC1,878
23,Cc1ccc(CNS(=O)(=O)c2ccc3c(c2)CCCC(=O)N3)cc1,751

row,SMILES,RP-LC retention time [s]
1,COc1ccccc1NC(=O)C1CCCN1S(=O)(=O)c1cc2c(cc1Cl)NC(=O)CO2 (centres undefined),805
2,COc1ccc(N2CC(C(=O)N3CCC(c4noc(-c5ccccc5)n4)CC3)CC2=O)cc1 (centres undefined),855
3,Cc1ccc(C(=O)N2CCc3ccc(CNC(=O)NC(C)C)cc32)cc1,808
4,Cc1ccccc1-c1nc(-c2ccc3c(c2)nnn3CCN2CCOCC2)no1,706
5,COC(=O)c1ccc(Cl)cc1NC(=O)N1CCN(C)c2ncccc21,700
6,CSc1ccccc1NC(=O)c1cc(=O)c(OCc2ccc(F)cc2)co1,859
7,CCOC(=O)c1c(C)c(CCC(=O)NC2CCCCC2)n(C)c1C,892
8,Cn1nc(-c2nnc(-c3ccccc3F)o2)c2c1CCN(S(=O)(=O)c1cccc(C#N)c1)C2,885
9,CC(C)CC(=O)NCC1Cn2cccc2C(=O)N1C (centres undefined),620
10,Cc1ccccc1-c1nc(-c2nnn(Cc3ccccc3)c2C)no1,1120
11,CCSc1nnc(NC(=O)CCc2csc(NC(=O)c3cccs3)n2)s1,788
12,CN1c2ccc(Cl)cc2C(=O)NC12CCN(C(=O)c1ccc3c(c1)OCO3)CC2,769
13,CSc1ccc(NS(=O)(=O)c2cc3c(s2)CCN(C(=O)C2CC2)C3)cc1,856
14,Cc1ccc(C(=O)CSc2ccc(NC(=O)C(C)C)nn2)c(C)c1,890
15,CCc1ccccc1NC(=O)COc1nc(C)nc2ccccc12,747
16,O=C(NC1CC1)c1nc(C(=O)N2CCN(c3ccccc3F)CC2)cs1,818
17,O=S(=O)(Cc1ccccc1)N1CCC(n2c(-c3ccoc3)nc3cccnc32)C1 (centres undefined),787
18,Cc1ccc(-c2cc3n(n2)CCCN(C(=O)CCC(=O)c2ccc(F)cc2)C3)cc1,943
19,COc1ccc(C)cc1NS(=O)(=O)c1ccccc1-c1nc(-c2ccc(F)cc2)no1,1280
20,CCc1nc(-c2cc(S(=O)(=O)N3CCC(C(=O)Nc4cccc(C#N)c4)CC3)c(C)s2)no1,1020
21,CCN1CCCn2cc(S(=O)(=O)Nc3ccc(OC)c(Cl)c3)cc2C1=O,740
22,CCOC(=O)c1nc(Nc2ccc(C)cc2C)c2ccccc2n1,831
23,O=C(Nc1ccc(-c2nnc3n2CCCC3)cc1)C1CCCC1,648

row,SMILES,RP-LC retention time [s]
1,Cc1cc(F)cc2c(=O)c3c([nH]c12)CCN(CC(=O)Nc1ccc2c(c1)OCO2)C3,615
2,CCOC(=O)c1c(C)c(-c2ccccc2)n(CC(=O)N2CCN(c3ccccn3)CC2)c1C,729
3,CC1CCN(S(=O)(=O)c2cccc(-c3nc(-c4ccccc4)no3)c2)CC1,1360
4,Cc1cccc(CNC(=O)CCc2conc2-c2ccccc2)c1,923
5,CCN1C(=O)c2cccnc2Sc2cc(CNC(=O)c3ccccc3OC)ccc21,772
6,CN1C(=O)CCc2cc(NC(=O)c3ccsc3)ccc21,691
7,O=C(c1cn2ccccc2n1)N1CCN(Cc2cccc(F)c2)CC1,555
8,Cc1ccccc1-c1noc(Cn2c(=O)n(CCc3ccccc3)c(=O)c3sccc32)n1,1200
9,Cc1cc(C)n(-c2ccc(N3CCN(C(=O)c4ccc(S(N)(=O)=O)cc4)CC3)nn2)n1,620
10,CC(=O)N1CCCc2cc(S(N)(=O)=O)ccc21,559
11,CCc1nccn1Cc1nc(-c2ccc(C(F)(F)F)cc2)no1,700
12,Cc1ccc(S(=O)(=O)N2CCn3c(nn(CC4CC4)c3=O)C2)c(C)c1,809
13,Cc1noc(-c2ccc(NC(=O)C3c4ccccc4Oc4ccccc43)cc2)n1,983
14,O=C(Cn1nc2c(N3CCCCCC3)nccn2c1=O)Nc1ccc(F)cc1F,705
15,COc1ccc(NS(=O)(=O)c2ccc(N)cc2)nn1,572
16,CC1Oc2ccc(-c3csc(NC(=O)C4CCCCC4)n3)cc2NC1=O (centres undefined),922
17,Cc1nc(Nc2ccc(Br)cn2)sc1C(=O)N1CCN(C(C)C)CC1,630
18,Cc1ccccc1-n1c(=O)c2sccc2n(Cc2nc(-c3ccc(Br)cc3)no2)c1=O,1120
19,CCOc1ccc(-c2noc(Cc3nc(-c4ccccc4)cs3)n2)cc1,1240
20,COc1cc(CN(CC2CCCO2)C(=O)c2ccc(F)cc2)cc(OC)c1OC (centres undefined),834
